Source: patent US7655688B2, “Fused cyclic succinimide compounds and analogs thereof, modulators of nuclear hormone receptor function” (Bristol-Myers Squibb Company, priority 2001, dated 2010)
Where two headings read alike, the source gives them in different places.

Legend:
AR [1] = target: T1, AR (Rattus norvegicus, UniProt P15207); details: castrated rats
T1 sequence (P15207 1-902): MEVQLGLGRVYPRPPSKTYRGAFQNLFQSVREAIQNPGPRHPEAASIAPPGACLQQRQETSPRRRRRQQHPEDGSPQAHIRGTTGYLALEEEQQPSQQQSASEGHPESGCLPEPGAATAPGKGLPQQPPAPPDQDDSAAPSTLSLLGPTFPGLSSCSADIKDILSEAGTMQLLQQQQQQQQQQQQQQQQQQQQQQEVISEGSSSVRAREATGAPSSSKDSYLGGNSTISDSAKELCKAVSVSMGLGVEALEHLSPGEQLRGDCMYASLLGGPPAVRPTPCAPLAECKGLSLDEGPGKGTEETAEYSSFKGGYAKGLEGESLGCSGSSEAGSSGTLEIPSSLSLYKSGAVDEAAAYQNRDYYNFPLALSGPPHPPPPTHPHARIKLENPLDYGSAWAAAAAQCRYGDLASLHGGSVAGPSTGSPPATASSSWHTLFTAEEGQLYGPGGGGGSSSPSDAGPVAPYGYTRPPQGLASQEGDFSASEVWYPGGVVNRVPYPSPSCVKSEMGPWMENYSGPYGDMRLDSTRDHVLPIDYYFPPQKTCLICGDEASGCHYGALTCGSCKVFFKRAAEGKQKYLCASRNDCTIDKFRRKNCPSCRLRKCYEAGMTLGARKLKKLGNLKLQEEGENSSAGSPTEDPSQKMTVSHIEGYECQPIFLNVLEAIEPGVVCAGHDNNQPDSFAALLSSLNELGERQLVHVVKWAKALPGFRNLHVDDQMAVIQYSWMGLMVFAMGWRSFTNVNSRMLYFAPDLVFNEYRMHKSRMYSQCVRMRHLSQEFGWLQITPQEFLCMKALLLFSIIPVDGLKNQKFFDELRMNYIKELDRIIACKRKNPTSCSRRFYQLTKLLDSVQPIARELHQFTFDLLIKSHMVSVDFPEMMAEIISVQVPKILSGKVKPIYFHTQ
Text: The activity of compounds of the present invention as AR agonists was investigated in an immature male rat model, a recognized test of anabolic effects in muscle and sustaining effects in sex organs for a given compound, as described in L. G. Hershberger et al., Proc. Soc. […] Nem.
The basis of this assay lies in the well-defined action of androgenic agents on the maintenance and growth of muscle tissues and sexual accessory organs in animals and man. […] J. Anat. […] Ital. Biol. Sper. […] II. […] Ital. Biol. Sper. […] As described above, the effects of androgens on maintenance of male sexual accessory organs, such as the prostate and seminal vesicles, is well described. Castration results in rapid involution and atrophy of the prostate and seminal vesicles. This effect can be reversed by exogenous addition of androgens. Since both the levator ani muscle and the male sex organs are the tissues most responsive to the effects of androgenic agents, this model is used to determine the androgen dependent reversal of atrophy in the levator ani muscle and the sex accessory organs in immature castrated rats. Sexually mature rats (200-250 g, 6-8 weeks-old, Sprague-Dawley, Harlan) were acquired castrated from the vendor (Taconic). The rats were divided into groups and treated daily for 7 to 14 days with one of the following: • 1. Control vehicle • 2. […]

AR [2] = target: T1, AR
[3] = test system: GR induced AP-1 transrepression; assay: In vitro assay to measure GR induced AP-1 transrepression (luciferase reporter, A549 cells); type: cell-based; details: concentration of ≦10 μM; 10 ng/ml PMA; typical value
Method: The AP-1 assay is a cell based luciferase reporter assay. A549 cells, which contain endogenous glucocorticoid receptor, were stably transfected with an AP-1 DNA binding site attached to the luciferase gene. Cells are then grown in RPMI+10% fetal calf serum (charcoal-treated)+Penicillin/Streptomycin with 0.5 mg/ml geneticin. Cells are plated the day before the assay at approximately 40000 cells/well. On assay day, the media is removed by aspiration and 20 μl assay buffer (RPMI without phenol red+10% FCS (charcoal-treated)+Pen/Strep) is added to each well. At this point either 20 μl assay buffer (control experiments), the compounds of the present invention (“test compounds”) (dissolved in DMSO and added at varying concentrations) or dexamethasome (100 nM in DMSO, positive control) are added to each well. The plates are then pre-incubated for 15 minutes at 37° C., followed by stimulation of the cells with 10 ng/ml PMA. The plates are then incubated for 7 hrs at 37° C. after which 40 μl luciferase substrate reagent is added to each well. Activity is measured by analysis in a luminometer as compared to control experiments treated with buffer or dexamethasome. […] The control, dexamethasone, at a concentration of ≦10 μM typically suppresses activity by 65%.

SMILES	EC50 (increase in organ weight) (AR [1]; dosing for 3 days)	potency relative to free T (AR [1]; organ weight)	ED80 (organ weight increase) (AR [2]; immature castrated rat model)	EC50 (increase in organ weight) (AR [2]; immature castrated rats, dosing for 3 days)	potency relative to free T (AR [2]; immature castrated rats, organ weight)	suppression of activity (% inhibition of the reporter system vs buffer control with PMA alone) [3]
CCC(=O)O[C@H]1CC[C@H]2[C@@H]3CCC4=CC(=O)CC[C@]4(C)[C@H]3CC[C@]12C [TP, Testosterone Propionate]	~0.03 mg	10-30 fold	0.1 mg	~0.03 mg	10-30 fold	
C[C@@H]1C[C@H]2[C@@H]3CCC4=CC(=O)C=C[C@]4(C)[C@@]3(F)[C@@H](O)C[C@]2(C)[C@@]1(O)C(=O)CO [dexamethasone]						65%
